Assay results published in publication PMC2365111, “Cytotoxicity of Poly(Phenolic)Sulfonates and Their Sodium Salts in L1210 Lymphoid Leukemia Cells” (Metal-Based Drugs, 1998).
≈ marks a conversion by molar mass, not a printed value.

Experiments:
[1] = system: colorectal adenocarcinoma SW480; experiment: Cytotoxicity, SW480 growth; format: cell-based, human
Source text: CYTOTOXlCITY OF POLY(PHENOLIC)SULFONATES AND THEIR SODIUM SALTS IN L1210 LYMPHOID LEUKEMIA CELLS Fei Wang, Amy E. Warren, Cheryl R. Barnes and Iris H. Hall* Division of Medicinal Chemistry and Natural Products University of North Carolina Chapel Hill, N.C. […] Because ofthese properties it was surmised that these poly(phenolic)sulfonated compounds may have antineoplastic activity. METHODS Source of Compounds Test compounds were supplied by GeneLabs, Inc. [Redwood City, CA [Table 1]. Radioisotopes were obtained from New England Nuclear [Dupont, Boston, MA]. Substrates and co-factors were purchased om Sigma Chemical Co., [St Louis, MO]. Pentosan sulfate and other antineoplastic standards were obtained from Sigma Chemical Co. Tumor lines were obtained from American Type Culture Collection [Rockville, MD]. 147 Vol. 5, No. 3, 1998 Cytotoxicity ofSodium Poly(Phenolic)Sulfonates in L1210 Lymphoid Leukemia Cells Table 1 Structures of Poly(phenolic)sulfonate Compounds O2R" n Compound R' R" n MW # G1-2041 H OH 8 1489.46 G1-2029 H OH 6 1117.09 G1-2030 H OH 4 744.73 GI-2021 CH3 ONa 8 1777.5 G1-2057 CH3 ONa 4 888.75 GI-2158 CH3 ONa 6 1333.13 GI-2063 OCH3 ONa 8 2001.65 G1-2042 OAc ONa 8 2017.73 Cytotoxicity Poly(phenolic)sulfonates were tested for cytotoxic activity by homogenizing drug in 0.05% Tween 80/H20 to give a mg/ml stock concentration. These solutions were sterilized by passing them through an acrodisc ([…]). The following cell lines were maintained by literature techniques: murine L1210 lymphoid leukemia, P-388 lymphocytic leukemia, rat UMR 106 osteosarcoma, human Tmolt3 acute lymphoblastic T cell leukemia, HUT-8 lymphoma, HeLa-S suspended cervical carcinoma, HeLa solid cervical carcinoma, KB epidermoid nasopharynx, A431 epidermoid carcinoma, colorectal adenocarcinoma SW480, HCT-8 ileocecal adenocarcinoma, lung bronchogenic MB-9812, A549 lung carcinoma, and glioma HS683. […] Cell numbers were determined by the trypan blue exclusion technique. Solid tumor cytotoxicity was determined by Leibovitz et al. 's method utilizing crystal violeeOH and read at 562 nm (Molecular Devices). Values for cytotoxicity were expressed as EDs0 g/ml, i.e. the concentration ofthe compound inhibiting 50% ofcell growth. […] Incorporation of 4C- formate (53.0 mCi/mmol) into pyrimidines was determined by the method of Christopherson et al.[13]. […] DNA polymerase Ot activity was determined in cytoplasmic extracts isolated by Eichler et aL's method. […] Messenger-, ribosomal- and transfer-RNA polymerase enzymes were isolated with different concentrations of ammonium sulfate; individual RNA polymerase activities were determined using 3H -UTP 16,17]. Ribonucleoside reductase activity was measured using 4C -CDP with dithioerythritol. […]

rRNA polymerase = target: T1, rRNA polymerase (Mus musculus, UniProt O35134); experiment: Ribosomal-RNA polymerase activity, L1210; format: biochemical; conditions: 60 min, N=6
T1 construct: Messenger-, ribosomal- and transfer-RNA polymerase enzymes were isolated with different concentrations of ammonium sulfate; endogenous in cells; host or cells: L1210 murine lymphoid leukemia cells, ammonium sulfate fraction
Source text: (§1) CYTOTOXlCITY OF POLY(PHENOLIC)SULFONATES AND THEIR SODIUM SALTS IN L1210 LYMPHOID LEUKEMIA CELLS Fei Wang, Amy E. Warren, Cheryl R. Barnes and Iris H. Hall* Division of Medicinal Chemistry and Natural Products University of North Carolina Chapel Hill, N.C. […] Because ofthese properties it was surmised that these poly(phenolic)sulfonated compounds may have antineoplastic activity. METHODS Source of Compounds Test compounds were supplied by GeneLabs, Inc. [Redwood City, CA [Table 1]. Radioisotopes were obtained from New England Nuclear [Dupont, Boston, MA]. Substrates and co-factors were purchased om Sigma Chemical Co., [St Louis, MO]. Pentosan sulfate and other antineoplastic standards were obtained from Sigma Chemical Co. Tumor lines were obtained from American Type Culture Collection [Rockville, MD]. 147 Vol. 5, No. 3, 1998 Cytotoxicity ofSodium Poly(Phenolic)Sulfonates in L1210 Lymphoid Leukemia Cells Table 1 Structures of Poly(phenolic)sulfonate Compounds O2R" n Compound R' R" n MW # G1-2041 H OH 8 1489.46 G1-2029 H OH 6 1117.09 G1-2030 H OH 4 744.73 GI-2021 CH3 ONa 8 1777.5 G1-2057 CH3 ONa 4 888.75 GI-2158 CH3 ONa 6 1333.13 GI-2063 OCH3 ONa 8 2001.65 G1-2042 OAc ONa 8 2017.73 Cytotoxicity Poly(phenolic)sulfonates were tested for cytotoxic activity by homogenizing drug in 0.05% Tween 80/H20 to give a mg/ml stock concentration. These solutions were sterilized by passing them through an acrodisc ([…]). The following cell lines were maintained by literature techniques: murine L1210 lymphoid leukemia, P-388 lymphocytic leukemia, rat UMR 106 osteosarcoma, human Tmolt3 acute lymphoblastic T cell leukemia, HUT-8 lymphoma, HeLa-S suspended cervical carcinoma, HeLa solid cervical carcinoma, KB epidermoid nasopharynx, A431 epidermoid carcinoma, colorectal adenocarcinoma SW480, HCT-8 ileocecal adenocarcinoma, lung bronchogenic MB-9812, A549 lung carcinoma, and glioma HS683. Geran et al.'s protocol was used to assess the cytotoxicity of the compounds and standards in each cell line. Cell numbers were determined by the trypan blue exclusion technique. Solid tumor cytotoxicity was determined by Leibovitz et al. 's method utilizing crystal violeeOH and read at 562 nm (Molecular Devices). Values for cytotoxicity were expressed as EDs0 g/ml, i.e. the concentration ofthe compound inhibiting 50% ofcell growth. A value of less than 4 µg/ml was required for significant activity ofgrowth inhibition. Incorporation Studies Incorporation of labeled precursors into 3H-DNA, 3H -RNA and 3H -protein for 10 L1210 cells was obtained. The concentration response for inhibition of DNA, RNA and protein synthesis of the compounds at 25, 50 and 100 l.tM was determined for 60 min incubations. Incorporation of 14C -glycine (53.0 mCi/mmol) into purines was obtained by the method of Cadman et al.[12]. Incorporation of 4C- formate (53.0 mCi/mmol) into pyrimidines was determined by the method of Christopherson et al.[13]. Enzyme Assays Inhibition of various enzyme activities was performed by first preparing the appropriate L1210 cell homogenates or subcellular fractions, then adding the drug to be tested during the enzyme assay. For the concentration response studies, inhibition of enzyme activity was determined at 25, 50 and 100 l.tM of compounds G1-2021, G1-2029, GI-2041 and G1-2063 after 60 min incubations. DNA polymerase Ot activity was determined in cytoplasmic extracts isolated by Eichler et aL's method. The DNA polymerase assay was described by Sedwick et al.[15] using 3H-TTP. Messenger-, ribosomal- and transfer-RNA polymerase enzymes were isolated with different concentrations of ammonium sulfate; individual RNA polymerase activities were determined using 3H -UTP 16,17]. Ribonucleoside reductase activity was measured using 4C -CDP with dithioerythritol. The deoxyribonucleotides 4C -dCDP were separated from the ribonucleotides by TLC on PEI plates. […]

[2] = system: Thymidine diphosphate kinase; experiment: TDP kinase activity, L1210; format: biochemical, mouse; conditions: 60 min, N=6
Source text: as §1

Thymidylate synthetase = target: T2, Thymidylate synthetase (Mus musculus, UniProt P07607); experiment: Thymidylate synthetase activity, L1210; format: biochemical; conditions: 60 min, N=6
T2 construct: preparing the appropriate L1210 cell homogenates or subcellular fractions; endogenous in cells; host or cells: L1210 murine lymphoid leukemia cells, homogenate or subcellular fraction
T2 sequence (P07607 whole entry): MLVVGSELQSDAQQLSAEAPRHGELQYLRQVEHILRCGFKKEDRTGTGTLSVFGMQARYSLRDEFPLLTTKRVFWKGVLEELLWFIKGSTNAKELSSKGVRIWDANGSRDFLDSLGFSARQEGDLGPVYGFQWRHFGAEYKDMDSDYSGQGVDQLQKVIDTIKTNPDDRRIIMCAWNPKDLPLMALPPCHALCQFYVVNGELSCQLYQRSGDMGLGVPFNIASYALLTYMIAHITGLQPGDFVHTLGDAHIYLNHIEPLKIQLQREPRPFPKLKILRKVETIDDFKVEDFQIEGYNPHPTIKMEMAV
Source text: as §1

L1210 DNA = L1210 DNA strand scission, alkaline-sucrose gradient; format: cell-based, mouse; conditions: 100 μM, 24 hr
Source text: (§2) CYTOTOXlCITY OF POLY(PHENOLIC)SULFONATES AND THEIR SODIUM SALTS IN L1210 LYMPHOID LEUKEMIA CELLS Fei Wang, Amy E. Warren, Cheryl R. Barnes and Iris H. Hall* Division of Medicinal Chemistry and Natural Products University of North Carolina Chapel Hill, N.C. […] Because ofthese properties it was surmised that these poly(phenolic)sulfonated compounds may have antineoplastic activity. METHODS Source of Compounds Test compounds were supplied by GeneLabs, Inc. [Redwood City, CA [Table 1]. Radioisotopes were obtained from New England Nuclear [Dupont, Boston, MA]. Substrates and co-factors were purchased om Sigma Chemical Co., [St Louis, MO]. […] Cell numbers were determined by the trypan blue exclusion technique. Solid tumor cytotoxicity was determined by Leibovitz et al. 's method utilizing crystal violeeOH and read at 562 nm (Molecular Devices). Values for cytotoxicity were expressed as EDs0 g/ml, i.e. the concentration ofthe compound inhibiting 50% ofcell growth. […] Incorporation of 4C- formate (53.0 mCi/mmol) into pyrimidines was determined by the method of Christopherson et al.[13]. […] DNA polymerase Ot activity was determined in cytoplasmic extracts isolated by Eichler et aL's method. […] Messenger-, ribosomal- and transfer-RNA polymerase enzymes were isolated with different concentrations of ammonium sulfate; individual RNA polymerase activities were determined using 3H -UTP 16,17]. […]

[3] = system: HeLa solid cervical carcinoma; experiment: Cytotoxicity, solid HeLa growth; format: cell-based, human
Source text: as §2

[4] = target: T3, Thymidine monophosphate kinase (Mus musculus, UniProt P97930); experiment: TMP kinase activity, L1210; format: biochemical; conditions: 60 min, N=6
T3 construct: preparing the appropriate L1210 cell homogenates or subcellular fractions; endogenous in cells; host or cells: L1210 murine lymphoid leukemia cells, homogenate or subcellular fraction
T3 sequence (P97930 1-212): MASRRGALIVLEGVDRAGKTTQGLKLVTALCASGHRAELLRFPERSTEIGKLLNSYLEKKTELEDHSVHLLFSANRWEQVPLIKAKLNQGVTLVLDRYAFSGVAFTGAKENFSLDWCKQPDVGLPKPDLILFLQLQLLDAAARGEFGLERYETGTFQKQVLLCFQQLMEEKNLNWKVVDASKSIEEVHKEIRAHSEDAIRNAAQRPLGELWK
Source text: as §1

[5] = system: HeLa-S suspended cervical carcinoma; experiment: Cytotoxicity, HeLa-S3 growth; format: cell-based, human
Source text: as §2

[6] = system: KB epidermoid nasopharynx; experiment: Cytotoxicity, KB growth; format: cell-based, human
Source text: as §2, with “MO]. Pentosan sulfate and other antineoplastic standards were obtained from Sigma Chemical Co. Tumor lines were obtained from American Type Culture Collection [Rockville, MD].” for “MO].”, “16,17]. Ribonucleoside reductase activity was measured using 4C -CDP with dithioerythritol.” for “16,17].”

[7] = concentration inhibiting 50% of cell growth

| SMILES | activity, in words [1] | ED50 [1, 7] | rRNA polymerase (rRNA polymerase; 25 μM) | rRNA polymerase (rRNA polymerase; 50 μM) | rRNA polymerase (rRNA polymerase; 100 μM) | Thymidine diphosphate kinase ([2]; 50 μM) | Thymidine diphosphate kinase ([2]; 100 μM) | Thymidylate synthetase (Thymidylate synthetase; 25 μM) | Thymidylate synthetase (Thymidylate synthetase; 50 μM) | Thymidylate synthetase (Thymidylate synthetase; 100 μM) | L1210 DNA fragmentation, in words (L1210 DNA) | activity, in words [3] | ED50 [3, 7] [µg/mL] | Thymidine monophosphate kinase ([4]; 25 μM) | Thymidine monophosphate kinase ([4]; 100 μM) | growth suppression, in words [5] | Thymidine diphosphate kinase ([2]; 25 μM) | Thymidine monophosphate kinase ([4]; 50 μM) | activity, in words [6] | ED50 [6, 7] [µg/mL] |
| --- | --- | --- | --- | --- | --- | --- | --- | --- | --- | --- | --- | --- | --- | --- | --- | --- | --- | --- | --- | --- |
| COc1c2cc(S(=O)(=O)[O-])cc1Cc1cc(S(=O)(=O)[O-])cc(c1OC)Cc1cc(S(=O)(=O)[O-])cc(c1OC)Cc1cc(S(=O)(=O)[O-])cc(c1OC)Cc1cc(S(=O)(=O)[O-])cc(c1OC)Cc1cc(S(=O)(=O)[O-])cc(c1OC)Cc1cc(S(=O)(=O)[O-])cc(c1OC)Cc1cc(S(=O)(=O)[O-])cc(c1OC)C2.[Na+].[Na+].[Na+].[Na+].[Na+].[Na+].[Na+].[Na+] [GI-2021] | active | less than 2 μg/ml | 122+7% of Control | 120+5% of Control | 123+4% of Control | 32+3% of Control | 26+3% of Control | 97+6% of Control | 88+5% of Control | 82+4% of Control | more evident | effective | 1.97 | 110+6% of Control | 32+3% of Control | – | – | – | – | – |
| O=S(=O)(O)c1cc2c(O)c(c1)Cc1cc(S(=O)(=O)O)cc(c1O)Cc1cc(S(=O)(=O)O)cc(c1O)Cc1cc(S(=O)(=O)O)cc(c1O)Cc1cc(S(=O)(=O)O)cc(c1O)Cc1cc(S(=O)(=O)O)cc(c1O)C2 [GI-2029] | – | – | 115+6% of Control | 102+4% of Control | 107+5% of Control | – | 27+3% of Control | 92+5% of Control | 89+6% of Control | – | more moderated | – | – | 118+6% of Control | – | best activity | 57+3% of Control | 50+5% of Control | – | – |
| O=S(=O)(O)c1cc2c(O)c(c1)Cc1cc(S(=O)(=O)O)cc(c1O)Cc1cc(S(=O)(=O)O)cc(c1O)Cc1cc(S(=O)(=O)O)cc(c1O)Cc1cc(S(=O)(=O)O)cc(c1O)Cc1cc(S(=O)(=O)O)cc(c1O)Cc1cc(S(=O)(=O)O)cc(c1O)Cc1cc(S(=O)(=O)O)cc(c1O)C2 [GI-2041] | – | – | 112+5% of Control | – | – | 64+5% of Control | 54+3% of Control | 105+5% of Control | 103+6% of Control | 92+5% of Control | – | – | – | 80+5% of Control | – | – | 89+5% of Control | 41+3% of Control | active | 2.60 (≈ 1.75 µM) |
